Tested on: SEM cells
Experiment: cell viability relative to DMSO control; higher = less cytotoxic
Conditions: 48 h
Procedure, shortened: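 Viability is expressed as a percentage of DMSO wells within each plate, and cell-free wells serve as background. Seeding densities in the 1536-well plates (5 μl) were 500 cells/well for NOMO1 or SEM leukemia cells and 1000 cells/well for P12-Ichikawa. Each line was adapted for at least four passages in each medium. Library compounds in DMSO were pin-dosed at 47 μM to 0.79 nM (11 points, threefold), and CellTiter-Glo One luminescence was read after 48 h at 37°C.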

[1] = HPLM + 10% dialyzed FBS, 0.000781 µM
[2] = HPLM + 10% dialyzed FBS, 0.00234 µM
[3] = HPLM + 10% dialyzed FBS, 0.00702 µM
[4] = HPLM + 10% dialyzed FBS, 0.0211 µM
[5] = HPLM + 10% dialyzed FBS, 0.0632 µM
[6] = HPLM + 10% dialyzed FBS, 0.19 µM
[7] = HPLM + 10% dialyzed FBS, 0.569 µM
[8] = HPLM + 10% dialyzed FBS, 1.71 µM
[9] = HPLM + 10% dialyzed FBS, 5.12 µM
[10] = HPLM + 10% dialyzed FBS, 15.4 µM
[11] = HPLM + 10% dialyzed FBS, 46.1 µM
[12] = RPMI 5 mM glucose + 10% FBS, 0.000781 µM
[13] = RPMI 5 mM glucose + 10% FBS, 0.00234 µM
[14] = RPMI 5 mM glucose + 10% FBS, 0.00702 µM
[15] = RPMI 5 mM glucose + 10% FBS, 0.0211 µM
[16] = RPMI 5 mM glucose + 10% FBS, 0.0632 µM
[17] = RPMI 5 mM glucose + 10% FBS, 0.19 µM
[18] = RPMI 5 mM glucose + 10% FBS, 0.569 µM
[19] = RPMI 5 mM glucose + 10% FBS, 1.71 µM
[20] = RPMI 5 mM glucose + 10% FBS, 5.12 µM
[21] = RPMI 5 mM glucose + 10% FBS, 15.4 µM
[22] = RPMI 5 mM glucose + 10% FBS, 46.1 µM
[23] = RPMI 5 mM glucose + 10% dialyzed FBS, 0.000781 µM
[24] = RPMI 5 mM glucose + 10% dialyzed FBS, 0.00234 µM
[25] = RPMI 5 mM glucose + 10% dialyzed FBS, 0.00702 µM
[26] = RPMI 5 mM glucose + 10% dialyzed FBS, 0.0211 µM
[27] = RPMI 5 mM glucose + 10% dialyzed FBS, 0.0632 µM
[28] = RPMI 5 mM glucose + 10% dialyzed FBS, 0.19 µM
[29] = RPMI 5 mM glucose + 10% dialyzed FBS, 0.569 µM
[30] = RPMI 5 mM glucose + 10% dialyzed FBS, 1.71 µM
[31] = RPMI 5 mM glucose + 10% dialyzed FBS, 5.12 µM
[32] = RPMI 5 mM glucose + 10% dialyzed FBS, 15.4 µM
[33] = RPMI 5 mM glucose + 10% dialyzed FBS, 46.1 µM

Row | SMILES | cell viability [1] [%] | cell viability [2] [%] | cell viability [3] [%] | cell viability [4] [%] | cell viability [5] [%] | cell viability [6] [%] | cell viability [7] [%] | cell viability [8] [%] | cell viability [9] [%] | cell viability [10] [%] | cell viability [11] [%] | cell viability [12] [%] | cell viability [13] [%] | cell viability [14] [%] | cell viability [15] [%] | cell viability [16] [%] | cell viability [17] [%] | cell viability [18] [%] | cell viability [19] [%] | cell viability [20] [%] | cell viability [21] [%] | cell viability [22] [%] | cell viability [23] [%] | cell viability [24] [%] | cell viability [25] [%] | cell viability [26] [%] | cell viability [27] [%] | cell viability [28] [%] | cell viability [29] [%] | cell viability [30] [%] | cell viability [31] [%] | cell viability [32] [%] | cell viability [33] [%]
1 | O=C(Oc1ccc([N+](=O)[O-])cc1)N1CCC(C(O)(c2ccc3c(c2)OCO3)c2ccc3c(c2)OCO3)CC1 | 72.2 | 89.4 | 64.5 | 97 | 86.3 | 94.8 | 99.7 | 83.7 | 46.6 | 93.5 | 86.1 | 83.3 | 72 | 58.6 | 93.2 | 94.5 | 90.4 | 84 | 78.6 | 35.4 | 99.3 | 85.5 | 90.1 | 95 | 61.6 | 95.9 | 88.6 | 94.7 | 97.9 | 99.3 | 46.3 | 96.2 | 98.2
2 | CC1=C(CC(=O)O)c2cc(F)ccc2/C1=C\c1ccc([S+](C)[O-])cc1 (stereo unspecified) | 111 | 121 | 130 | 125 | 127 | 125 | 126 | 109 | 108 | 104 | 76.7 | 96.6 | 86.7 | 98.5 | 95.8 | 90.3 | 106 | 83.6 | 90.7 | 79.6 | 71.9 | 63.4 | 126 | 118 | 119 | 118 | 130 | 115 | 105 | 107 | 95.9 | 99.8 | 74.3
3 | Cc1ccc([S+](=O)([O-])Nc2nc3ccccc3nc2Nc2ccc3nsnc3c2)cc1 | 81.7 | 90.3 | 99.9 | 88.2 | 92.6 | 93.5 | 87.8 | 90.5 | 78.6 | 73.5 | 59.1 | 102 | 100 | 102 | 112 | 107 | 101 | 97.8 | 105 | 78.7 | 81.3 | 54.9 | 95 | 87.9 | 84.8 | 96 | 88.2 | 84.4 | 89.7 | 96.4 | 83.2 | 61.8 | 65.8
4 | C[S+](=O)([O-])c1cccc(CNc2nc(Nc3ccc4c(c3)CCC(=O)N4)ncc2C(F)(F)F)c1 |  |  |  |  |  |  |  |  |  |  |  | 112 | 126 | 119 | 127 | 105 | 125 | 109 | 71.5 | 63.1 | 30.6 | 8.79 | 111 | 114 | 98.4 | 110 | 101 | 94.9 | 87.3 | 74.4 | 49.9 | 20.5 | 4.38
5 | COc1ccc([C@@H]2CC(=O)c3c(O)cc(O[C@@H]4O[C@H](CO[C@@H]5O[C@@H](C)[C@H](O)[C@@H](O)[C@H]5O)[C@@H](O)[C@H](O)[C@H]4O)cc3O2)cc1O | 99.2 | 101 | 93.9 | 93.2 | 113 | 48 | 110 | 116 | 125 | 108 | 123 | 105 | 86.6 | 98.4 | 93.4 | 112 | 58.5 | 107 | 91.3 | 107 | 113 | 120 | 112 | 107 | 106 | 114 | 110 | 54.7 | 127 | 114 | 132 | 137 | 119
6 | COC(=O)C1C2CC3c4[nH]c5cc(OC)ccc5c4CCN3CC2CC(OC(=O)c2cc(OC)c(OC)c(OC)c2)C1OC (stereo unspecified) | 116 | 120 | 119 | 125 | 130 | 119 | 141 | 115 | 116 | 117 | 105 | 97.2 | 120 | 102 | 107 | 113 | 102 | 104 | 112 | 94.8 | 85.2 | 91.4 | 116 | 110 | 113 | 105 | 104 | 134 | 124 | 135 | 128 | 82.1 | 86.6
7 | CN1CCN2c3ncccc3Cc3ccccc3C2C1 (stereo unspecified) | 115 | 91.6 | 101 | 97.4 | 98.9 | 106 | 22 | 112 | 112 | 89.5 | 101 | 116 | 116 | 108 | 121 | 114 | 129 | 16.9 | 122 | 127 | 111 | 97 | 137 | 116 | 113 | 124 | 134 | 136 | 28.7 | 129 | 126 | 124 | 122
8 | CC[C@]12\C=C/CN3CC[C@]4([C@@H](N(C)C5=CC(=C(C=C45)[C@]6(C[C@H]7C[C@H](CN(C7)CC8=C6[NH]C9=C8C=CC=C9)C(C)(F)F)C(=O)OC)OC)[C@](O)([C@@H]1OC(C)=O)C(=O)OC)[C@H]23 | 107 | 97.9 | 94.9 | 74.6 | 29.3 | 21.1 | 22 | 22 | 25 | 17.8 | 6.8 | 120 | 120 | 87.4 | 76.9 | 18.7 | 18.8 | 17.3 | 20.2 | 15.6 | 11.3 | 6.89 | 95.3 | 83 | 74.5 | 68.9 | 43.2 | 21.2 | 16.9 | 18.9 | 21 | 15.3 | 5.17
9 | C[S+](=O)([O-])c1ccc(-c2cnc(N)c(C(=O)Nc3ccccc3)n2)cc1 | 99.6 | 98.3 | 115 | 107 | 123 | 106 | 127 | 110 | 95.2 | 23.7 | 20.2 | 99.1 | 87.6 | 90.7 | 105 | 107 | 133 | 129 | 119 | 103 | 33.1 | 25.3 | 98.5 | 103 | 98.5 | 99.6 | 96.2 | 111 | 99.8 | 105 | 82.7 | 16 | 15.4
10 | NC(=O)c1cccc2cn(-c3ccc([C@@H]4CCCNC4)cc3)nc12 | 86.9 | 90.8 | 105 | 126 | 129 | 98.9 | 112 | 116 | 91.8 | 63.8 | 50 | 97.8 | 111 | 113 | 110 | 102 | 92.8 | 119 | 113 | 120 | 80.1 | 32.5 | 94.3 | 80.8 | 93.4 | 106 | 104 | 90 | 109 | 124 | 94.6 | 66.4 | 44.4
11 | CCCCCCCCCC(=O)N[C@@H](Cc1c[nH]c2ccccc12)C(=O)N[C@H](CC(N)=O)C(=O)N[C@@H](CC(=O)O)C(=O)N[C@@H]1C(=O)NCC(=O)N[C@@H](CCCN)C(=O)N[C@@H](CC(=O)O)C(=O)N[C@H](C)C(=O)N[C@@H](CC(=O)O)C(=O)NCC(=O)N[C@H](CO)C(=O)N[C@@H]([C@@H](C)CC(=O)O)C(=O)N[C@@H](CC(=O)c2ccccc2N)C(=O)O[C@@H]1C | 81.6 | 101 | 98.3 | 108 | 93.4 | 108 | 121 | 114 | 116 | 107 | 101 | 103 | 103 | 123 | 114 | 105 | 120 | 121 | 102 | 116 | 119 | 120 | 102 | 105 | 94.8 | 103 | 123 | 104 | 117 | 103 | 109 | 105 | 102
12 | O=C(O)/C=C/c1ccc(O)c(O)c1 | 90.4 | 102 | 93.6 | 122 | 106 | 93.6 | 98.5 | 105 | 112 | 78 | 20.2 | 108 | 96.8 | 90.3 | 114 | 110 | 90.6 | 109 | 106 | 98.5 | 39.1 | 5.15 | 99.2 | 117 | 111 | 112 | 103 | 114 | 104 | 91.7 | 105 | 50 | 5.58
13 | CC1(C)CNc2cc(NC(=O)c3cccnc3NCc3ccncc3)ccc21 | 118 | 118 | 121 | 112 | 102 | 104 | 92.4 | 101 | 96.3 | 93 | 13.2 | 85.4 | 70.9 | 87.7 | 79.4 | 79.7 | 79.4 | 73.9 | 75.4 | 78.1 | 70.1 | 12.9 | 111 | 112 | 105 | 128 | 125 | 100 | 102 | 91.1 | 79.2 | 90.6 | 7.67
14 | CNCc1ccc(-c2[nH]c3cc(F)cc4c3c2CCNC4=O)cc1 | 101 | 103 | 126 | 148 | 122 | 118 | 117 | 133 | 155 | 141 | 109 | 106 | 118 | 128 | 123 | 134 | 127 | 143 | 152 | 163 | 153 | 128 | 94.5 | 110 | 115 | 115 | 95.7 | 130 | 126 | 136 | 115 | 120 | 106
